Data: patent US12350308B2, “Phosphorylcholine conjugates and uses thereof” (TPCERA LTD., priority 2013, dated 2025)
Where no end group is shown, it is not given here.

Key:
Type in all cases: in vivo
NZBXW/F1 mice [1] = assay: Proteinuria in lupus mice treated with PC-tuftsin (Multistix); conditions: 50 μg/0.1 ml s.c. 3 times a week from 14 weeks; vs PBS
Experimental: The effect of PC-tuftsin (TPC) on proteinuria was determined in a mouse model for lupus, specifically, female NZBXW/F1 mice that develop lupus on a genetic background. Proteinuria levels were measured using Multistix (Bayer Diagnostics). This type of measurement is typically used in the clinic for assessing manifestation of lupus nephritis. Lupus nephritis is an inflammation of the kidney caused by systemic lupus erythematosus (SLE).
The mice, from age of 14 weeks, received subcutaneously PC-tuftsin at the concentration of 50 μg/0.1 ml per mouse (treatment; n=10) or PBS (control; n=10), three times a week. Proteinuria was defined as having a protein level of above 100 mg/dl in the urine.

[2] = test system: splenocytes of lupus mice; assay: Secreted cytokine protein of splenocytes of lupus mice treated with PC-tuftsin (DuoSet); conditions: splenocytes incubated 72 hours
Experimental: (§1) Mice, from age of 14 weeks, received subcutaneously PC-tuftsin at the concentration of 50 μg/0.1 ml per mouse (treatment; n=10) or PBS (control; n=10), three times a week. In the cytokines studies, the relative mRNA expression levels of pro-inflammatory cytokine IFNγ and anti-inflammatory cytokine TGFβ were analyzed by real time RT-PCR using LightCycler (Roche). Total RNA was isolated from splenocytes and was reverse-transcribed into cDNA by using Moloney Murine Leukemia Virus Reverse Transcriptase (Promega). The resulting cDNA was subjected to real-time RT-PCR in the presence of specific primers, according to the manufacturer's instructions (Table 2). The relative expression levels of IFNγ and TGFβ were normalized to β-actin levels.
Splenocytes protein level of anti-inflammatory cytokines TGFβ, and IL-10 and pro-inflammatory cytokines IFNγ, and IL-17 were quantified by DuoSet (R&D Systems), according to the manufacturer's instructions. Briefly, spleens from mice treated with PC-tuftsin or PBS were harvested, splenocytes were isolated (5×10^6/ml) and incubated for 72 hours and thereafter assessed for contents of secreted cytokines.

[3] = test system: splenocytes of lupus mice; assay: Cytokine mRNA in splenocytes of lupus mice treated with PC-tuftsin (real time RT-PCR); conditions: normalized to β-actin; vs PBS
Experimental: as §1

male C57BL/6 mice = assay: DSS induced acute colitis in mice; conditions: even after day 12
Experimental: The effect of PC-tuftsin derivative (SEQ ID NO: 25) on colitis development was determined in a mouse model subjected to induction of acute colitis by dextran sulfate sodium (DSS) treatment. Specifically, induction of colitis was carried out in male C57BL/6 mice (“colitis mice”) by supplementing the drinking water (2.5% wt/v) for five days with DSS (mol. wt. 36,000-50,000).
Two groups of mice were fed daily via oral ingestion using a feeding-needle, with PC-tuftsin derivative at a concentration of 500 μg/0.1 ml per mouse (treatment; n=10), or PBS (control; n=10). These compounds were given during 11 days starting two days before DSS administration.
Assessment of colitis development was performed by monitoring body weight, rectal bleeding, stool consistency, and survival every second day. Intestinal bleeding was followed by Hemoccult test and observation of bleeding signs on the anus or gross bleeding. The daily disease activity index (DAI) was calculated by grading on a scale of zero to four the following parameters: change in weight (0, <1%; 1, 1-5%; 2, 5-10%; 3, 10— 15%; and 4, >15%), intestinal bleeding (0, negative; 4, positive), and stool consistency (0, normal; 2, loose stools; 4, diarrhea). The combined scores were then divided by three to obtain the final disease activity index. Ten days following disease induction, mice were sacrificed and the large intestine was collected and evaluated for colon length and microscopic colonic damage. For microscopic scoring, the proximal, medial, and distal portions of the colon and the cecum were fixed in 10% phosphate-buffered formalin. Paraffin-embedded sections were stained with H&E. The degree of histological damage and inflammation was graded in a blinded fashion by an expert pathologist

NZBXW/F1 mice [4] = assay: Kidney morphology in lupus mice treated with PC-tuftsin (PAS, immunofluorescence); conditions: 50 μg/0.1 ml s.c. 3 times a week
Experimental: The effect of PC-tuftsin on the morphology of kidneys was determined in a lupus mouse model as in Examples 2. Kidney section obtained from kidneys of mice sacrificed after treatments were paraffin embedded. PAS staining was used to detect pathology of nephritis. Immunofluorescence staining was used for detecting immune complex deposits. The latter was implemented by incubating the paraffin embedded sections with FITC-conjugated-anti-mouse-IgG. Evaluation was performed by a pathologist.
Mice, from age of 14 weeks, received subcutaneously PC-tuftsin at the concentration of 50 μg/0.1 ml per mouse (treatment; n=10) or PBS (control; n=10), three times a week.

Tregs CD4+CD25+FOXP3+ = assay: T regulatory cell profiling by FACS in splenocytes of lupus mice (PC-tuftsin study); conditions: PBS 4±0.6 percent
Experimental: as §1
Finally, a T regulatory cell (Tregs) profiling assay was performed in isolated splenocytes incubated with the following antibodies: anti-CD4^+FITC, anti-CD25^+APC and anti-FOXP3^+PE (eBioscience) and analyzed by FACS. Forward and side scatter gates adjusted to include all cells and to exclude debris (Becton Dickinson). Cells were gated on CD4+ cells, and for intracellular staining, the cells were incubated with a fixation solution, washed and resuspended in permeabilization solution (Serotec). Isotype control was used as reference.

Substance: PC-tuftsin: PC conjugated to tuftsin (threonine-lysine-proline-arginine, TKPR; SEQ ID NO: 17) using 4-aminophenylphosphorylcholine (also: phosphorylcholine conjugated via 4-aminophenylphosphorylcholine, site not given here)
- proteinuria (protein level above 100 mg/dl) (NZBXW/F1 mice [1]): significant attenuation
- increase in protein level of IL-10 ([2]; vs PBS): 4.8
- increase in protein level of TGFβ ([2]; vs PBS): 5.1
- reduction of IFNγ concentration ([2]; vs control): 5.2 fold
- reduction of IL-17 concentration ([2]; vs control): 2.7 fold
- relative mRNA expression of IFNγ in splenocytes [3]: significantly reduced
- relative mRNA expression of TGFβ in splenocytes [3]: significantly enhanced
- mice still alive (male C57BL/6 mice): 100%
- pathology of nephritis (PAS staining) (NZBXW/F1 mice [4]): did not display any pathology of nephritis
- immune complex deposits in the glomeruli (NZBXW/F1 mice [4]; vs PBS): very mild immune complex deposits
- enhancement in Tregs CD4+CD25+FOXP3+ expression level (Tregs CD4+CD25+FOXP3+): 18±2%
